One data set can be described thus: PK analysis in rats. Type of data set: in vivo, Sprague Dawley (SD) rats. Particulars: SD rats, single intragastric administration, 5 mg/10 ml/kg; for AUC(0-t): read-out: AUC0-8; for MRT inf: read-out: MRT0-∞.
Another data set can be described thus: in vivo. The note with it: beagle, dog, po, 2 mg/kg. How it is done:
1. 1.0 ml of intravenous blood was collected and placed in a Heparin test tube. The blood was centrifuged at RT 6000 rpm for 5 minutes to isolate the plasma, which was stored at −80° C.
2. 160 μL of acetonitrile were added to 40 μL of plasma sample for precipitation, and then the mixture was centrifuged at 3500 rpm for 5 minutes.
3. 100 μL of treated solution was taken, and the concentration of the test compound was analyzed by LC/MS/MS. The LC/MS/MS analytical instrument was AB Sciex API 4000.
Liquid Chromatography: • Condition of Liquid chromatography: Shimadzu LC-20AD pump • Chromatographic column: phenomenex Gemiu 5 μm C18 50×4.6 mm • Mobile phase: Solution A is 0.1% formic acid aqueous solution, and Solution B is acetonitrile • Flow rate: 0.8 mL/min • Elution time: 0-3.5 minutes, the eluent used was as follows: […]

Data set [1] deals with exon 20 T790M mutant-type EGFR enzyme (Homo sapiens, UniProt P00533, T790M). Put plainly: Enzymologic experiment of T790M mutant-type EGFR (TR-FRET). It is filed as biochemical. Particulars: for IC50: T790M EGFR enzyme, TR-FRET, ATP 1 to 10 uM; for Selectivity of wild-type/mutant-type: ratio WT IC50 / T790M IC50, enzyme. The gist of the method:
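Compound dilutions preincubated 10 min at room temperature; reaction ended with EDTA, then labeled antibody added for 1 h at room temperature. Inhibition rates derived from TR-FRET fluorescence signal, and IC50 obtained by curve fitting across concentrations.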

Another data set has as its target wild-type EGFR enzyme (Homo sapiens, UniProt P00533). Description: Enzymologic experiment of wild-type (WT) EGFR (TR-FRET). It is filed as biochemical. The note with it: ATP 0.1 to 5 uM. The gist of the method: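 Wild-type EGFR (0.1 to 1 nM final) preincubated with serially diluted compound for 10 minutes at room temperature; reaction stopped with EDTA, then labelled antibody added for 1 hour at room temperature. TR-FRET signal converted to inhibition rates; IC50 from curve fitting across concentrations.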

The subject of a further data set is NCI-H1975 cells. Put plainly: Inhibition of NCI-H1975 cell proliferation (CellTiter-Glo). It is filed as cell-based. The note with it: for IC50: Homo sapiens, NCI-H1975, 72 h, NCI-H1975 cell proliferation, 72 hours, CellTiter-Glo, read-out: EGFR IC50 (nM) H1975; for Selectivity of wild-type/mutant-type: ratio A431 IC50 / H1975 IC50, cells.
Another data set concerns A431 cells. Description: Inhibition of A431 cell proliferation (CellTiter-Glo). It is filed as cell-based. The note with it: Homo sapiens, A-431, 72 h, read-out: EGFR IC50 (nM) A431. The gist of the method:
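Viability read as CellTiter-Glo luminescence; IC50 by curve fitting of inhibition rates.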
(In ATP-based viability assays light output follows the ATP content of the culture.)

Where [2] appears, read: Sprague-Dawley, rat, po, 5 mg/kg, plasma.

What is called Cmax is the maximum level reached in the sampled fluid or tissue. Usually Tmax stands for the time from dosing to the highest level. As usually defined, the IC50 is the point on the concentration scale where inhibition reaches its midpoint. A word on the AUC(0-inf): it is total exposure, with the tail of the curve extrapolated. Broadly, the half-life is the time in which the quantity being followed falls by half. Read a high half-life as slow loss.

Sequence of wild-type EGFR enzyme (P00533 25-1210): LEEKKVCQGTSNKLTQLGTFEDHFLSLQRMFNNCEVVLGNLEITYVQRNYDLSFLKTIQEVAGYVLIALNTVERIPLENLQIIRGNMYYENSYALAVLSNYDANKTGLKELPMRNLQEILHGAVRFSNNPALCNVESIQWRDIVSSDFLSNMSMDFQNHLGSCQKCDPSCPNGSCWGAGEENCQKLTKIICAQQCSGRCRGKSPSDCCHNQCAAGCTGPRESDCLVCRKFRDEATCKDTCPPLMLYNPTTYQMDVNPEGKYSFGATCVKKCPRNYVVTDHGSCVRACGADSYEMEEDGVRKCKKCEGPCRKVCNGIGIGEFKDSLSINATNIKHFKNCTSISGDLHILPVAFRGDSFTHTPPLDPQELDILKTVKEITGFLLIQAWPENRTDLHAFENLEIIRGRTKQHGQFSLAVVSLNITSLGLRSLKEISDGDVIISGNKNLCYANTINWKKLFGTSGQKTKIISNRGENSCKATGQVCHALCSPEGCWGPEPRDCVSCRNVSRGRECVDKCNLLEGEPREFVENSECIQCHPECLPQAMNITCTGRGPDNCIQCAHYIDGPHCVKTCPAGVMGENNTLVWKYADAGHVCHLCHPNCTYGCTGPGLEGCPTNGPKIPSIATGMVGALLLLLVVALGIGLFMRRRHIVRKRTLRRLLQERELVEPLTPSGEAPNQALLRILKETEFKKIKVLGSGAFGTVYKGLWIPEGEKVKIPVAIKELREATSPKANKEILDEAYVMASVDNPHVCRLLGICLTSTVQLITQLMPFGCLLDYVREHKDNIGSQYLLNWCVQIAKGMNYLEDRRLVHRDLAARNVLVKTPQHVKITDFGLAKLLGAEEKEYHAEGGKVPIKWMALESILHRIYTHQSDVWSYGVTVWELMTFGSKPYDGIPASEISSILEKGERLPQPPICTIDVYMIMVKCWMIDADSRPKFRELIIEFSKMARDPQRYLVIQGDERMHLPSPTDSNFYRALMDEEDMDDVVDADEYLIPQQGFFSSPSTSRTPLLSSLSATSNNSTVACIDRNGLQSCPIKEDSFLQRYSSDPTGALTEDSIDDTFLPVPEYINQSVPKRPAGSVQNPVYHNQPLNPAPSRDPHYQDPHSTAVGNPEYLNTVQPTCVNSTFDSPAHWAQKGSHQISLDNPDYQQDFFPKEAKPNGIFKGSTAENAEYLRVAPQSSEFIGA
Sequence of exon 20 T790M mutant-type EGFR enzyme (P00533 25-1210 T790M): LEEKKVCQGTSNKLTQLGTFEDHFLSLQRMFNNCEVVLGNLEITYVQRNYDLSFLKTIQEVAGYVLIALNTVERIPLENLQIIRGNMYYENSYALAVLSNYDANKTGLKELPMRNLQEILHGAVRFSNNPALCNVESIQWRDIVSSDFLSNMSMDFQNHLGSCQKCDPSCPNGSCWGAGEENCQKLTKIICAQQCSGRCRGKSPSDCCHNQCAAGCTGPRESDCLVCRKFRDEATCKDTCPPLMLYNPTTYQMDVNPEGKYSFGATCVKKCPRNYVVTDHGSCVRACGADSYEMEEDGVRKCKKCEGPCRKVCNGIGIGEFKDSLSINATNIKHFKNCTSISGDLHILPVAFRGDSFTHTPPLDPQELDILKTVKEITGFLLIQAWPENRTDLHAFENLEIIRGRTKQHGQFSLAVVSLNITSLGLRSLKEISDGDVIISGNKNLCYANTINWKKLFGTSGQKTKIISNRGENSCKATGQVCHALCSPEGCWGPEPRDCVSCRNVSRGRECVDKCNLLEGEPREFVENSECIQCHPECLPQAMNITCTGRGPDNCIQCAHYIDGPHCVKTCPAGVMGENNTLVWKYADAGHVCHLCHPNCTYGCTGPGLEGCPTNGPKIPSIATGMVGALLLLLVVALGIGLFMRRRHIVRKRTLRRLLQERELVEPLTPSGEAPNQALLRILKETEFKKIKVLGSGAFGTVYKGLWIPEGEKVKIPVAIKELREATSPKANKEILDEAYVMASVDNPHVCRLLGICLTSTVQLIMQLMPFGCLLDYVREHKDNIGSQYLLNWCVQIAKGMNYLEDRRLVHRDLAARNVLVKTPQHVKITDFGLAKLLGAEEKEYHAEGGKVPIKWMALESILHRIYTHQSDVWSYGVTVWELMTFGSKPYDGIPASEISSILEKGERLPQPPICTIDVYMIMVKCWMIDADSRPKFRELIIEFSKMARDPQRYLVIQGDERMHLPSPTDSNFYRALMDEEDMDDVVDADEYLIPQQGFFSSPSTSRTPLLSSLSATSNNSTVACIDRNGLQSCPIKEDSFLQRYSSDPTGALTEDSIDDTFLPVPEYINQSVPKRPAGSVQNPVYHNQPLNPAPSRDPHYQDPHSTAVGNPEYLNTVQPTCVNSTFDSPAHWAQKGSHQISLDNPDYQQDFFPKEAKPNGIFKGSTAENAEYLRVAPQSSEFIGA
Method for PK analysis in rats: 1.0 ml of intravenous blood was collected and placed in a K2EDTA test tube. The blood was centrifuged at RT 6000 rpm for 5 minutes to isolate the plasma, which was stored at −80° C.
Liquid Chromatography: • Condition of Liquid chromatography Shimadzu LC-20AD pump • Chromatographic column: phenomenex Gemiu 5 μm C18 50×4.6 mm • Mobile phase: Solution A is 0.1% formic acid aqueous solution, and Solution B is acetonitrile • Flow rate: 0.8 mL/min • Elution time: 0-3.5 minutes, the eluent used was as follows:
Condition of mass spectrometer: positive ion electrospray ionization (ESI) mode. • Analysis results of liquid chromatography and mass spectrometry:

With `C=CC(=O)Nc1cc(Nc2nccc(-c3cn(C4CC4)c4ccccc34)n2)c(OC)cc1N(C)CCNC` [Metabolite of Example 26], in “PK analysis in rats” (setting [2]), the Cmax worked out at 16.4 ng/mL, the Tmax was determined as 0.5 h and the AUC(0-t) is 77.4 ng·h/mL. Moreover, in the data set “in vivo”, the AUC(0-t) came out at 2060 ng·h/mL, the Cmax worked out at 126 ng/mL and the Tmax worked out at 6 h.
On to `C=CC(=O)Nc1cc(Nc2nccc(-c3cn(C4CC4)c4ccccc34)n2)c(OC)cc1N(C)CCN(C)C` [Example 26, N-(5-((4-(1-cyclopropyl-1H-indol-3-yl)pyrimidin-2-yl)amino)-2-((2-(dimethylamino)ethyl)(methyl)amino)-4-methoxyphenyl)acrylamide], for which, in data set [1], the IC50 is 0.49 nM and the Selectivity of wild-type/mutant-type was determined as 3.9. The compound also registered an IC50 on wild-type EGFR enzyme of 1.89 nM. In addition, in the data set on NCI-H1975 cells, the 50% inhibitory concentration (IC50) is 2.44 nM and the Selectivity of wild-type/mutant-type worked out at 208.7. For the same compound, the IC50 in the data set with A431 cells is 509 nM. Moreover, the “metabolites in the plasma of rat” value in the data set “PK analysis in rats” is “only one metabolite”. Also, in the data set “PK analysis in rats” (setting [2]), the AUC(0-inf) came to 268 ng·h/mL, the Cmax was 58.4 ng/mL, the Tmax was found to be 0.5 h and the half-life was 2.3 h. In addition, in the data set “PK analysis in rats” (setting [2]), the AUC(0-t) was 235 ng·h/mL and the MRT inf was determined as 3.9 h. In “in vivo”, this compound showed a total exposure AUC(0-inf) of 5150 ng·h/mL, an AUC(0-t) of 4580 ng·h/mL, a Cmax of 528 ng/mL and an MRT inf of 9.2 h. For the same compound, in the data set “in vivo”, the time to peak (Tmax) amounted to 1 h and the half-life is 7 h.
As for `C=CC(=O)Nc1cc(Nc2nccc(-c3cn(C)c4ccccc34)n2)c(OC)cc1N(C)CCN(C)C` [AZD-9291, reference compound], the “t1/2” value in “PK analysis in rats” (plasma) was 3.8 h. Also, in the data set “PK analysis in rats” (setting [2]), the AUC(0-inf) was 283 ng·h/mL, the peak level (Cmax) was 58.3 ng/mL, the Tmax was determined as 2 h and the AUC(0-t) was 278 ng·h/mL. Also, the MRT inf in the data set “PK analysis in rats” (setting [2]) turned out to be 3.9 h. In addition, in “in vivo”, the concentration peaked (Cmax) at 81.4 ng/mL, the MRT inf was 9 h, the time to peak (Tmax) came out at 1 h and the half-life is 5.4 h.
`C#CCn1cc(-c2ccnc(Nc3cc(NC(=O)C=C)c(N(C)CCNC)cc3OC)n2)c2ccccc21` [Example 129, N-(4-methoxy-2-(methyl(2-(methylamino)ethyl)amino)-5-((4-(1-(prop-2-yn-1-yl)-1H-indol-3-yl)pyrimidin-2-yl)amino)phenyl)acrylamide]: the IC50 in data set [1] worked out at 1.01 nM; against wild-type EGFR enzyme it was 13.7 nM; in the data set with NCI-H1975 cells, 6.22 nM; with A431 cells, 690 nM. The Selectivity of wild-type/mutant-type in data set [1] came to 13.58; in the data set with NCI-H1975 cells, 110.93.
With `C=CC(=O)Nc1cc(Nc2nccc(-c3cn(C)c4cc(OC)ccc34)n2)c(OC)cc1N(C)CCNC` [Example 127, N-(4-methoxy-5-((4-(6-methoxy-1-methyl-1H-indol-3-yl)pyrimidin-2-yl)amino)-2-(methyl(2-(methylamino)ethyl)amino)phenyl)acrylamide], the IC50 in data set [1] is 0.44 nM; against wild-type EGFR enzyme, 2.3 nM; with NCI-H1975 cells it was 2.98 nM; in the data set on A431 cells, 88.2 nM. For the same compound, the Selectivity of wild-type/mutant-type is recorded as 5.23 in data set [1] and 29.58 in the data set on NCI-H1975 cells.
Consider `C=CC(=O)Nc1cc(Nc2ncc(Cl)c(-n3cnc4cc(OC)ccc43)n2)c(OC)cc1N(C)CCN(C)C` [Example 63, N-(5-((5-chloro-4-(5-methoxy-1H-benzo[d]imidazol-1-yl)pyrimidin-2-yl)amino)-2-((2-(dimethylamino)ethyl)(methyl)amino)-4-methoxyphenyl)acrylamide], for which the half-maximal inhibitory concentration (IC50) was determined as 0.36 nM in data set [1], 14.9 nM against wild-type EGFR enzyme, 1.87 nM with NCI-H1975 cells and 71 nM in the data set with A431 cells. Also, the Selectivity of wild-type/mutant-type in data set [1] was determined as 41.53; with NCI-H1975 cells it was 37.97.
For `C=CC(=O)Nc1cc(Nc2ncc(Cl)c(-n3ncc4cc(C#N)ccc43)n2)c(OC)cc1N(C)CCN(C)C` [Example 51, N-(5-((5-chloro-4-(5-cyano-1H-indazol-1-yl)pyrimidin-2-yl)amino)-2-((2-(dimethylamino)ethyl)(methyl)amino)-4-methoxyphenyl)acrylamide], the IC50 in data set [1] was found to be 0.53 nM; against wild-type EGFR enzyme it was 14.5 nM; with NCI-H1975 cells it was 5.06 nM; in the data set on A431 cells, 394 nM. Besides, the Selectivity of wild-type/mutant-type in data set [1] is listed as 27.56; in the data set on NCI-H1975 cells it was 77.94.
For the compound `C=CC(=O)Nc1cc(Nc2ncc(C(F)(F)F)c(-n3ncc4cc(OC)ccc43)n2)c(OC)cc1N(C)CCN(C)C` [Example 49, N-(2-((2-(dimethylamino)ethyl)(methyl)amino)-4-methoxy-5-((4-(5-methoxy-1H-indazol-1-yl)-5-(trifluoromethyl)pyrimidin-2-yl)amino)phenyl)acrylamide], the IC50 in data set [1] stood at 0.17 nM; on wild-type EGFR enzyme it was 6.3 nM; in the data set with NCI-H1975 cells, 1.93 nM; in the data set with A431 cells, 128 nM. The Selectivity of wild-type/mutant-type in data set [1] amounted to 37.06; with NCI-H1975 cells it was 66.48.
Turning to `C=CC(=O)Nc1cc(Nc2ncc(Cl)c(-n3nc(CC)c4cc(C#N)ccc43)n2)c(OC)cc1N(C)CCN(C)C` [Example 118, N-(5-((5-chloro-4-(5-cyano-3-ethyl-1H-indazol-1-yl)pyrimidin-2-yl)amino)-2-((2-(dimethylamino)ethyl)(methyl)amino)-4-methoxyphenyl)acrylamide], the IC50 was 0.71 nM in data set [1], 27.9 nM at wild-type EGFR enzyme, 93.7 nM in the data set with NCI-H1975 cells and 374 nM in the data set on A431 cells. Moreover, the Selectivity of wild-type/mutant-type in data set [1] is listed as 39.30; in the data set with NCI-H1975 cells, 3.99.

The record behind these values is patent US10428081B2, “EGFR inhibitor, preparation method and use thereof” (Shanghai Hansoh Biomedical Co., Ltd., priority 2014, dated 2019).
